Results reported in patent US11655241B2, “Heterocyclic compound and use thereof” (Takeda Pharmaceutical Company Limited, priority 2018, dated 2023).

Biological target: T1, human orexin type 2 receptor (Homo sapiens, UniProt O43614)
T1 construct: expressed in transfected cells
T1 sequence (O43614 1-444): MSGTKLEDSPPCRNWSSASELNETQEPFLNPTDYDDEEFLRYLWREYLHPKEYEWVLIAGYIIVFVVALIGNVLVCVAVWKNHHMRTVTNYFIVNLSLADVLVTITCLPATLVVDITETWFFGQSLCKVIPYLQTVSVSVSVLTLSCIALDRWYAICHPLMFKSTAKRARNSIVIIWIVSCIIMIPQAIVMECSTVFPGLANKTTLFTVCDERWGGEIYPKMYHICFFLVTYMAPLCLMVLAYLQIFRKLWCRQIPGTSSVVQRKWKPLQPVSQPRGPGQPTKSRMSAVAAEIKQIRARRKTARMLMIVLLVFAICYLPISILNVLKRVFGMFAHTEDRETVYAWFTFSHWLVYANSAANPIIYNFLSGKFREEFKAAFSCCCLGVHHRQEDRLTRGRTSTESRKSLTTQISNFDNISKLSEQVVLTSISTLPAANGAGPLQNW
Test: Measurement of orexin type 2 receptor agonist activity (calcium fluorescence, Fluo-4 AM, FDSS)
Assay type: cell-based
Conditions: compound at 3 μM; CHO cells forcibly expressing human OX2 receptor; DMSO = 0%, orexin A (human) 10 nM = 100%
Description: Experimental Example 1: Obtainment of Cell Stably Expressing Human Orexin Type 2 Receptor (hOX2R)
To obtain a cell clone stably expressing human orexin type 2 receptor, human orexin type 2 receptor cDNA was inserted into pcDNA3.1(+) plasmid vector (Invitrogen), and a plasmid DNA for expression of human orexin type 2 receptor (pcDNA3.1(+)/hOX2R) was cloned. The plasmid DNA was introduced into CHO-dhfr cell by an electroporation method, and human orexin type 2 receptor expressing clone cells were obtained by limiting dilution method by using G418 drug resistance as a selection marker.
Experimental Example 2: Measurement of Orexin Type 2 Receptor Agonist Activity
CHO cells forcibly expressing human OX2 receptor were seeded in each well of 384 well black transparent bottom plate (BD Falcon) at 7,500 cells/well, and cultured for one day in a 5% CO2 incubator at 37° C. After removal of the medium in the cell plate, assay buffer A containing a calcium indicator (HBSS (Thermo Fisher Scientific), 20 mM HEPES (Thermo Fisher Scientific), 0.1% BSA (Wako Pure Chemical Industries, Ltd. or Sigma-Aldrich), 2.5 μg/mL Fluo-4 AM (DOJINDO Chemical), 0.08% Pluronic F127 (DOJINDO Chemical), 1.25 mM probenecid (DOJINDO Chemical)) was added at 30 μL/well. The plate was stood for 30 min in a 5% CO2 incubator at 37° C., and further stood at room temperature for 30 min. A test compound prepared by diluting with assay buffer B (HBSS, 20 mM HEPES, 0.1% BSA) was added at 10 μL/well, and the fluorescence value was measured by FDSSμCELL (Hamamatsu Photonics K.K.) every one sec for 1 min, and thereafter every two sec for 1 min 40 sec. The activity (%) of the test compound was calculated assuming that variation in the fluorescence value when DMSO was added instead of the test compound was 0%, and variation in the fluorescence value when orexin A (human) (PEPTIDE INSTITUTE, INC.) was added at the final concentration of 10 nM was 100%. The activity of each compound at the concentration of 3 μM was shown below.

CN(C)C(=O)C(=O)N[C@H]1CCN(C(=O)C2(C#N)CCC2)[C@H]1Cc1cccc(-c2cccc(F)c2)c1 [Example 36, N^~2^~-((2S,3S)-1-(1-cyanocyclobutane-1-carbonyl)-2-[(3′-flluoro[1,1′-biphenyl]-3-yl)methyl]pyrrolidin-3-yl]-N^~1^~,N^~1^~- dimethylethanediamide]
OX2R agonist activity (3 μM, %): 86%

CN(C)C(=O)C(=O)N[C@H]1CCN(C(=O)C2(O)CCC2)[C@H]1Cc1cccc(-c2cccc(F)c2)c1 [Example 37, N^~2^~-[(2S,3S)-2-[(3′-fluoro[1,1′-biphenyl]-3-yl)methyl]-1-(1-hydroxycyclobutane-1-carbonyl)pyrrolidin-3-yl]-N^~1^~,N^~1^~- dimethylethanediamide]
OX2R agonist activity (3 μM, %): 101%

CN(C)C(=O)C(=O)N[C@H]1CCN(C(=O)C(C)(C)CO)[C@H]1Cc1cccc(-c2cccc(F)c2)c1 [Example 40, N^~2^~-[(2S,3S)-2-[(3′-fluoro[1,1′-biphenyl]-3-yl)methyl]-1-(3-hydroxy-2,2-dimethylpropanoyl)pyrrolidin-3-yl]-N^~1^~,N^~1^~-dimethylethanediamide]
OX2R agonist activity (3 μM, %): 79%

O=C(N[C@H]1CCN(C(=O)C2(F)CCC2)[C@H]1Cc1cccc(-c2cccc(F)c2)c1)[C@@H]1CCCO1 [Example 43, (2S)-N-[(2S,3S)-2-[(3′-fluoro[1,1′-biphenyl]-3-yl)methyl]-1-(1-fluorocyclobutane-1-carbonyl)pyrrolidin-3-yl]oxolane-2-carboxamide]
OX2R agonist activity (3 μM, %): 62%

O=C(N[C@H]1CCN(C(=O)C2(O)CCC2)[C@H]1Cc1cccc(-c2cccc(F)c2)c1)[C@@H]1CCCO1 [Example 45]
OX2R agonist activity (3 μM, %): 86%

CC(C)(CO)C(=O)N1CC[C@H](NC(=O)[C@@H]2CCCO2)[C@@H]1Cc1cccc(-c2cccc(F)c2)c1 [Example 46, (2S)-N-[(2S,3S)-2-[(3′-fluoro[1,1′-biphenyl]-3-yl)methyl]-1-(3-hydroxy-2,2-dimethylpropanoyl)pyrrolidin-3-yl]oxolane-2-carboxamide]
OX2R agonist activity (3 μM, %): 67%
